Laboratory results as given in patent US11932658B2 (BRISTOL-MYERS SQUIBB COMPANY, priority 2016, dated 2024).
pIC50: −log10 of the molar value. Read-outs that look alike come from different tables or passages of the source.

Biological target: T1, PAR4 (Homo sapiens, UniProt Q96RI0)
T1 construct: expressed in transfected cells; host or cells: HEK293 PAR4 Clone 1.2A (BMS Arctic ID 383940)
T1 sequence (Q96RI0 18-385): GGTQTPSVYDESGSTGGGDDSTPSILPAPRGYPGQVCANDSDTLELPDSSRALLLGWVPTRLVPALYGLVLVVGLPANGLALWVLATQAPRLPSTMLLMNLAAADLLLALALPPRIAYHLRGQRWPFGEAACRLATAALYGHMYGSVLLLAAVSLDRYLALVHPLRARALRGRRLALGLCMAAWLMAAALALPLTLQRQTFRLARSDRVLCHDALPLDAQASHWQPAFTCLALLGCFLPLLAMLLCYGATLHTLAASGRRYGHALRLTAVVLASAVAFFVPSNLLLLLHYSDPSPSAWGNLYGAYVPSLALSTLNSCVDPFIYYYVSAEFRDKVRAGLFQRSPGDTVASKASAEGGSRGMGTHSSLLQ
Assay: PAR4 FLIPR assay (antagonism of agonist peptide-induced calcium mobilization)
Format: cell-based
Method in brief: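 Antagonism was taken as block of calcium mobilization evoked by the agonist peptide H-Ala-Phe(4-F)-Pro-Gly-Trp-Leu-Val-Lys-Asn-[…]-NH2, added after 30 min room-temperature compound preincubation in dye-loaded PAR4-transfected HEK293 cells (endogenous PAR1). Fluorescence was read on FDSS, with compound addition alone used as the agonist counter-screen; values come from 11-point concentration-response curves.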

Compound | pIC50 | pIC50 (PAR4-expressing HEK293 cells, calcium mobilization induced by H-Ala-Phe(4-F)-Pro-Gly-Trp-Leu-Val-Lys-Asn-Gly-NH2, 11-point concentration-response curves)
COc1cnc2c(-c3nc4ccc5c(c4s3)CC(C)(C)O5)cc(C)cc2n1 [Example 186, 2-(2-methoxy-7-methylquinoxalin-5-yl)-7,7-dimethyl-7,8-dihydrobenzofuro[5,4-d]thiazole] | 8.06 | 
COc1cnc2c(-c3nc4ccc5c(c4s3)OC[C@H](COC(=O)Nc3cnc(C)nc3)O5)cc(C(F)F)cc2c1 [Example 275, (R)-(2-(6-(difluoromethyl)-3-methoxyquinolin-8-yl)-7,8-dihydro-[1,4]dioxino [2′,3′:3,4]benzo[1,2-d]thiazol-7-yl)methyl (2-methylpyrimidin-5-yl)carbamate] | 7.92 | 
(S)-5-fluoro-2-(2-methoxy-7-methylquinoxalin-5-yl)-7-(((2-methylpyrimidin-5-yl)oxy)m ethyl)-7,8-dihydro-[1,4]dioxino[2′,3′:3,4]benzo[1,2-d]thiazole [Example 292] |  | 8.96
COc1cnc2c(-c3nc4cc(F)c5c(c4s3)[C@H](C)[C@@H](CO)O5)cc(Cl)cc2c1 [Example 290, ((7S,8S)-2-(6-chloro-3-methoxyquinolin-8-yl)-5-fluoro-8-methyl-7,8-dihydrobenzofuro[5,4-d]thiazol-7-yl)methanol] | 9.10 | 
COc1cnc2c(-c3nc4c(C)cc5c(c4s3)OCC(COC(=O)Nc3cnc4c(c3)ncn4C)O5)cc(C)cc2n1 (stereo not drawn) [Example 129, (2-(2-methoxy-7-methylquinoxalin-5-yl)-4-methyl-7,8-dihydro-[1,4]dioxino[2′,3′:3,4]benzo[1,2-d]thiazol-7-yl)methyl (3-methyl-3H-imidazo [4,5-b]pyridin-6-yl)carbamate] | 8.80 | 
Cc1cc(-c2nc3c(F)cc4c(c3s2)OC(CNC(=O)OC(C)(C)C)CO4)c2ncc(OC(F)F)nc2c1 (stereo not drawn) [Example 23, tert-butyl ((2-(2-(difluoromethoxy)-7-methylquinoxalin-5-yl)-4-fluoro-7,8-dihydro-[1,4]dioxino[2′,3′:3,4]benzo[1,2-d]thiazol-8-yl)methyl)carbamate] | 8.03 | 
COc1cnc2c(-c3nc4c(C(O)C(C)(C)C)cc5c(c4s3)OCCCO5)cc(C)cc2n1 (stereo not drawn) [Example 264, 1-(2-(2-methoxy-7-methylquinoxalin-5-yl)-8,9-dihydro-7H-[1,4]dioxepino[2′,3′:3,4]benzo[1,2-d]thiazol-4-yl)-2,2-dimethylpropan-1-ol] | 7.82 | 
Cc1cc(-c2nc3c(F)cc4c(c3s2)OC(CO)CO4)c2ncc(OC(F)F)nc2c1 (stereo not drawn) [Example 22, (2-(2-(difluoromethoxy)-7-methylquinoxalin-5-yl)-4-fluoro-7,8-dihydro-[1,4]dioxino[2′,3′:3,4]benzo[1,2-d]thiazol-8-yl)methanol] | 8.06 | 
COc1cnc2c(-c3nc4c(C)cc5c(c4s3)OCC(COC(=O)Nc3ccc(N4CCN(C(=O)OC(C)(C)C)CC4)nc3)O5)cc(C)cc2n1 (stereo not drawn) [Example 136, tert-butyl 4-(5-((((2-(2-methoxy-7-methylquinoxalin-5-yl)-4-methyl-7,8-dihydro-[1,4]dioxino[2′,3′:3,4]benzo[1,2-d]thiazol-7-yl)methoxy)carbonyl)amino)pyridin-2-yl) piperazine-1-carboxylate] | 6.68 | 
COc1cnc2c(-c3nc4c(C)cc5c(c4s3)OCC(COC(=O)Nc3cccnc3)O5)cc(Cl)cc2n1 (stereo not drawn) [Example 95, (2-(7-chloro-2-methoxyquinoxalin-5-yl)-4-methyl-7,8-dihydro-[1,4]dioxino[2′,3′:3,4]benzo[1,2-d]thiazol-7-yl)methyl pyridin-3-ylcarbamate] | 6.85 | 
COc1cnc2c(-c3nc4cc(F)c5c(c4s3)C[C@@H](CNC(=O)Oc3ccccc3)O5)cc(C)cc2n1 [Example 212, (S)-phenyl ((5-fluoro-2-(2-methoxy-7-methylquinoxalin-5-yl)-7,8-dihydrobenzofuro[5,4-d]thiazol-7-yl)methyl)carbamate] | 8.68 | 
COc1cnc2c(-c3nc4cc(F)c5c(c4s3)[C@H](C)[C@@H](CNC(=O)OCC(C)C)O5)cc(C)cc2n1 [Example 256, Isobutyl (((7S,8S)-5-fluoro-2-(2-methoxy-7-methylquinoxalin-5-yl)-8-methyl-7,8-dihydrobenzofuro[5,4-d]thiazol-7-yl)methyl)carbamate] | 9.15 | 

The next lines start with results.

pIC50 | Compound | pIC50 (PAR4-expressing HEK293 cells, calcium mobilization induced by H-Ala-Phe(4-F)-Pro-Gly-Trp-Leu-Val-Lys-Asn-Gly-NH2, 11-point concentration-response curves)
7.92 | COc1cnc2c(-c3nc4c(C)cc5c(c4s3)OCC(COC(=O)Nc3ccnc(O)c3)O5)cc(C)cc2n1 (stereo not drawn) [Example 3, (2-(2-methoxy-7-methylquinoxalin-5-yl)-4-methyl-7,8-dihydro-[1,4]dioxino[2′,3′:3,4]benzo[1,2-d]thiazol-7-yl)methyl (2-hydroxypyridin-4-yl)carbamate] | 
8.54 | COC(=O)NC[C@@H]1Cc2c(c(F)cc3nc(-c4cc(C)cc5nc(OC)cnc45)sc23)O1 [Example 210, (S)-methyl ((5-fluoro-2-(2-methoxy-7-methylquinoxalin-5-yl)-7,8-dihydrobenzofuro[5,4-d]thiazol-7-yl)methyl)carbamate] | 
8.96 | CNC(=O)c1ccc(NC(=O)OC[C@H]2Cc3c(c(F)cc4nc(-c5cc(C)cc6nc(OC)cnc56)sc34)O2)cc1 [Example 208, (R)-(5-fluoro-2-(2-methoxy-7-methylquinoxalin-5-yl)-7,8-dihydrobenzofuro[5,4-d]thiazo 1-7-yl)methyl (4-(methylcarbamoyl)phenyl)carbamate] | 
7.40 | COc1cnc2c(-c3nc4cc(F)c5c(c4s3)C[C@@](C)(COP(=O)(O)O)O5)cc(C)cc2n1 [Example 237, (S)-(5-fluoro-2-(2-methoxy-7-methylquinoxalin-5-yl)-7-methyl-7,8-dihydrobenzofuro[5,4-d]thiazol-7-yl)methyl dihydrogen phosphate] | 
8.64 | COc1cnc2c(-c3nc4ccc5c(c4s3)OC[C@H](COC(=O)Nc3ccc([C@H](O)CO)nc3)O5)cc(C)cc2n1 [Example 111, ((R)-2-(2-methoxy-7-methylquinoxalin-5-yl)-7,8-dihydro-[1,4]dioxino[2′,3′:3,4]benzo [1,2-d]thiazol-7-yl)methyl (6-((S)-1,2-dihydroxyethyl)pyridin-3-yl)carbamate] | 
8.66 | COc1cnc2c(-c3nc4cc(F)c5c(c4s3)C[C@H](COC(=O)Nc3ccc(-c4ncco4)cc3)O5)cc(C)cc2n1 [Example 207, (R)-(5-fluoro-2-(2-methoxy-7-methylquinoxalin-5-yl)-7,8-dihydrobenzofuro[5,4-d]thiazo 1-7-yl)methyl (4-(oxazol-2-yl)phenyl)carbamate] | 
7.82 | COC(=O)NC[C@H]1Cc2c(c(F)cc3nc(-c4cc(C)cc5nc(OC)cnc45)sc23)O1 [Example 218, (R)-methyl ((5-fluoro-2-(2-methoxy-7-methylquinoxalin-5-yl)-7,8-dihydrobenzofuro[5,4-d]thiazol-7-yl)methyl)carbamate] | 
7.46 | COc1cnc2c(-c3nc4c(C)cc5c(c4s3)OCC(COC(=O)Nc3ccc(-c4ccccc4)nc3)O5)cc(C)cc2n1 (stereo not drawn) [Example 125, (2-(2-methoxy-7-methylquinoxalin-5-yl)-4-methyl-7,8-dihydro-[1,4]dioxino[2′,3′:3,4]benzo[1,2-d]thiazol-7-yl)methyl (6-phenylpyridin-3-yl)carbamate] | 
8.28 | COc1cnc2c(-c3nc4ccc5c(c4s3)CC(CNC(=O)OCc3ccccc3)O5)cc(C)cc2n1 (stereo not drawn) [Example 193, Benzyl ((2-(2-methoxy-7-methylquinoxalin-5-yl)-7,8-dihydrobenzofuro[5,4-d]thiazol-7-yl)methyl)carbamate] | 
9.15 | COc1cnc2c(-c3nc4c(Cl)cc5c(c4s3)CC(COC(=O)Nc3ccc(C)nc3)O5)cc(CO)cc2n1 (stereo not drawn) [Example 148, (4-chloro-2-(7-(hydroxymethyl)-2-methoxyquinoxalin-5-yl)-7,8-dihydrobenzofuro[5,4-d]thiazol-7-yl)methyl (6-methylpyridin-3-yl)carbamate] | 
8.96 | COc1cnc2c(-c3nc4cc(F)c5c(c4s3)C[C@@H](CO)O5)cc(C)cc2n1 [Example 146, (S)-(5-fluoro-2-(2-methoxy-7-methylquinoxalin-5-yl)-7,8-dihydrobenzofuro[5,4-d]thiazol-7-yl)methanol] | 
6.72 | COc1cnc2c(-c3nc4ccc5c(c4s3)C[C@@H](CNS(C)(=O)=O)O5)cc(C)cc2n1 [Example 228, (S)-N-((2-(2-methoxy-7-methylquinoxalin-5-yl)-7,8-dihydrobenzofuro[5,4-d]thiazol-7-yl)methyl)methanesulfonamide] | 
8.49 | COc1cnc2c(-c3nc4c(Cl)cc5c(c4s3)C[C@H](COC(=O)Nc3ccc(C)nc3)O5)cc(C)cc2n1 (single isomer, unassigned) [Example 20] | 
9.10 | COc1cnc2c(-c3nc4c(C)cc5c(c4s3)OC[C@H](COC(=O)Nc3ccnc(C)c3)O5)cc(C)cc2n1 [Example 44, (R)-(2-(2-methoxy-7-methylquinoxalin-5-yl)-4-methyl-7,8-dihydro-[1,4]dioxino[2′,3′:3,4]benzo[1,2-d]thiazol-7-yl)methyl (2-methylpyridin-4-yl)carbamate] | 
7.62 | COc1cnc2c(-c3nc4cc(F)c5c(c4s3)C[C@@H](CNC(=O)OC3CCOCC3)O5)cc(C)cc2n1 [Example 245, (S)-tetrahydro-2H-pyran-4-yl ((5-fluoro-2-(2-methoxy-7-methylquinoxalin-5-yl)-7,8-dihydrobenzofuro[5,4-d]thiazol-7-yl)methyl)carbamate] | 
